Mortality data for seven molecules are collected here from patent publication US20260020569A1, “PESTICIDALLY ACTIVE THIOSEMICARBAZONE COMPOUNDS” (BASF SE, priority 2021, published 2026).

Where only a bound is given, the exact number is not on record here.

Type in all cases: in vivo
Experiment [1] has as its system yellow fever mosquito (Aedes aegypti). The experiment in a line: whole plant or invertebrate. As to conditions: 48 h, larval mortality visually assessed after 2 days, read-out: mortality in comparison with untreated controls. Here is the method: Example B1: Action on Yellow Fever Mosquito (Aedes aegypti)
For evaluating control of yellow fever mosquito (Aedes aegypti) the test unit consisted of 96-well-microtiter plates containing 200 μl of tap water per well and 5-15 freshly hatched A. aegypti larvae.
The active compounds or mixtures were formulated using a solution containing 75% (v/v) water and 25% (v/v) DMSO. Different concentrations of formulated compounds or mixtures were sprayed onto the insect diet at 2.5 μl, using a custom built micro atomizer, at two replications. For experimental mixtures in these tests identical volumes of both mixing partners at the desired concentrations respectively, were mixed together.
After application, microtiter plates were incubated at 28±1° C., 80±5% RH for 2 days. Larval mortality was then visually assessed.

For experiment [2], the system named is Orchid thrips (Dichromothrips corbetti). Briefly: Action on orchid thrips (Dichromothrips corbetti), floral-immersion technique. Conditions: adult thrips, 72 hours after treatment, read-out: mortality in comparison with untreated controls. Here is the method:
Example B2: Action on Orchid Thrips (Dichromothrips corbetti)
Dichromothrips corbetti adults used for bioassay were obtained from a colony maintained continuously under laboratory conditions. For testing purposes, the test compound is diluted in a 1:1 mixture of acetone:water (vol:vol), plus Kinetic® HV at a rate of 0.01% v/v.
Thrips potency of each compound was evaluated by using a floral-immersion technique. All petals of individual, intact orchid flowers were dipped into treatment solution and allowed to dry in Petri dishes. Treated petals were placed into individual re-sealable plastic along with about 20 adult thrips. All test arenas were held under continuous light and a temperature of about 28° C. for duration of the assay. After 3 days, the numbers of live thrips were counted on each petal. The percent mortality was recorded 72 hours after treatment.

The subject of experiment [3] is boll weevil (Anthonomus grandis). Briefly: Action on boll weevil (Anthonomus grandis), eggs on insect diet in microtiter plates. Conditions: 120 h, egg and larval mortality after 5 days, read-out: mortality in comparison with untreated controls. As to the method: Example B3: Action on Boll Weevil (Anthonomus grandis)
For evaluating control of boll weevil (Anthonomus grandis) the test unit consisted of 96-well-microtiter plates containing an insect diet and 5-10 A. grandis eggs.
The compounds were formulated using a solution containing 75% (v/v) water and 25% (v/v) DMSO. Different concentrations of formulated compounds were sprayed onto the insect diet at 5 μl, using a custom built micro atomizer, at two replications.
After application, microtiter plates were incubated at about 25+1° C. and about 75+5% relative humidity for 5 days. Egg and larval mortality were then visually assessed.

The subject of experiment [4] is Silverleaf whitefly (Bemisia argentifolii) (adults). The experiment in a line: Action on silverleaf whitefly (Bemisia argentifolii) adults on sprayed cotton plants. Conditions: 72 h, 3 days after treatment, read-out: mortality in comparison with untreated controls. As to the method:
Example B4: Action on Silverleaf Whitefly (Bemisia argentifolii) (Adults)
The active compounds were formulated by a Tecan liquid handler in 100% cyclohexanone as a 10,000 ppm solution supplied in tubes. The 10,000 ppm solution was serially diluted in 100% cyclohexanone to make interim solutions. These served as stock solutions for which final dilutions were made by the Tecan in 50% acetone:50% water (v/v) into 5 or 10 ml glass vials. A non-ionic surfactant (Kinetic®) was included in the solution at a volume of 0.01% (v/v). The vials were then inserted into an automated electrostatic sprayer equipped with an atomizing nozzle for application to plants/insects.
Cotton plants at the cotyledon stage (one plant per pot) were sprayed by an automated electrostatic plant sprayer equipped with an atomizing spray nozzle. The plants were dried in the sprayer fume hood and then removed from the sprayer. Each pot was placed into a plastic cup and about 10 to 12 whitefly adults (approximately 3-5 days old) were introduced. The insects were collected using an aspirator and a nontoxic Tygon® tubing connected to a barrier pipette tip. The tip, containing the collected insects, was then gently inserted into the soil containing the treated plant, allowing insects to crawl out of the tip to reach the foliage for feeding. Cups were covered with a reusable screened lid. Test plants were maintained in a growth room at about 25° C. and about 20-40% relative humidity for 3 days, avoiding direct exposure to fluorescent light (24 hour photoperiod) to prevent trapping of heat inside the cup. Mortality was assessed 3 days after treatment, compared to untreated control plants.

The test system of experiment [5] is tobacco budworm (Heliothis virescens). The experiment in a line: Action on tobacco budworm (Heliothis virescens), eggs on insect diet in microtiter plates. Conditions: 120 h, egg and larval mortality after 5 days, read-out: mortality in comparison with untreated controls. As to the method:
Example B5: Action on Tobacco Budworm (Heliothis virescens)
For evaluating control of tobacco budworm (Heliothis virescens) the test unit consisted of 96-well-microtiter plates containing an insect diet and 15-25 H. virescens eggs.
The compounds were formulated using a solution containing 75% v/v water and 25% v/v DMSO. Different concentrations of formulated compounds were sprayed onto the insect diet at 10 μl, using a custom-built micro atomizer, at two replications.
After application, microtiter plates were incubated at about 28+1° C. and about 80+5% relative humidity for 5 days. Egg and larval mortality were then visually assessed.

In experiment [6] the test system is Diamond back moth (Plutella xylostella). The experiment in a line: Action on diamond back moth (Plutella xylostella), cabbage leaf dip. As to conditions: foliar, 3rd instar larvae on cabbage leaves, 72 hours after treatment, read-out: mortality in comparison with untreated controls. As to the method:
Example B6: Action on Diamond Back Moth (Plutella xylostella)
The active compound is dissolved at the desired concentration in a mixture of 1:1 (v/v) distilled water:acetone. Surfactant (Kinetic® HV) is added at a rate of 0.01% (v/v). The test solution is prepared at the day of use.
Leaves of cabbage were dipped in test solution and air-dried. Treated leaves were placed in petri dishes lined with moist filter paper and inoculated with ten 3rd instar larvae. Mortality was recorded 72 hours after treatment. Feeding damages were also recorded using a scale of 0-100%.

The test system of experiment [7] is Southern armyworm (Spodoptera eridania), 2nd instar larvae. The experiment in a line: Action on southern armyworm (Spodoptera eridania), 2nd instar larvae on sprayed lima bean plants. Conditions: 96 h, 2nd instar larvae on lima bean plants, 4 days after treatment, read-out: mortality in comparison with untreated controls. As to the method: Example B7: Action on Southern Armyworm (Spodoptera eridania), 2nd Instar Larvae
The active compounds were formulated by a Tecan liquid handler in 100% cyclohexanone as a 10,000 ppm solution supplied in tubes. The 10,000 ppm solution was serially diluted in 100% cyclohexanone to make interim solutions. These served as stock solutions for which final dilutions were made by the Tecan in 50% acetone:50% water (v/v) into 10 or 20 ml glass vials. A nonionic surfactant (Kinetic®) was included in the solution at a volume of 0.01% (v/v). The vials were then inserted into an automated electrostatic sprayer equipped with an atomizing nozzle for application to plants/insects.
Lima bean plants (variety Sieva) were grown 2 plants to a pot and selected for treatment at the 1st true leaf stage. Test solutions were sprayed onto the foliage by an automated electrostatic plant sprayer equipped with an atomizing spray nozzle. The plants were dried in the sprayer fume hood and then removed from the sprayer. Each pot was placed into perforated plastic bags with a zip closure. About 10 to 11 armyworm larvae were placed into the bag and the bags zipped closed. Test plants were maintained in a growth room at about 25° C. and about 20-40% relative humidity for 4 days, avoiding direct exposure to fluorescent light (24 hour photoperiod) to prevent trapping of heat inside the bags. Mortality and reduced feeding were assessed 4 days after treatment, compared to untreated control plants.

With `COCCOCCOCCOC(=O)OCS/C(=N\N=C\c1ccc(-n2cc(NC(=O)c3ccc(OC(F)(F)F)cc3)c(C)n2)cc1)Nc1cc(C)ccc1C(C)C` [Compound C-5, [(Z)—N-(2-isopropyl-5-methyl-phenyl)-N′-[(E)-[4-[3-methyl-4-[[4-(trifluoromethoxy)benzoyl]amino]pyrazol-1-yl]phenyl]methyleneamino]carbamimidoyl]sulfanylmethyl 2-[2-(2-methoxyethoxy)ethoxy]ethyl carbonate], the mortality at 800 ppm was ≥ 50% in experiment [1], ≥ 75% in experiment [3] and ≥ 75% in experiment [5]. In addition, the mortality at 500 ppm in experiment [2] and in experiment [6] was ≥ 75% throughout. Further, the mortality at 300 ppm in experiment [4] and in experiment [7] was ≥ 75% each time.
Consider `Cc1ccc(C(C)C)c(N/C(=N/N=C/c2ccc(-n3cc(NC(=O)c4ccc(OC(F)(F)F)cc4)c(C)n3)cc2)SCOC(=O)C(C)C)c1` [Compound C-6, [(Z)—N-(2-isopropyl-5-methyl-phenyl)-N′-[(E)-[4-[3-methyl-4-[[4 (trifluoromethoxy)benzoyl]amino]pyrazol-1-yl]phenyl]methyleneamino]carbamimidoyl]sulfanylmethyl 2-methylpropanoate], for which the values for the mortality at 800 ppm in experiment [1], in experiment [3] and in experiment [5] were ≥ 50%, ≥ 75% and ≥ 75%, respectively. In addition, the mortality at 500 ppm in experiment [2] and in experiment [6] was ≥ 75% throughout. Moreover, the mortality at 300 ppm in experiment [7] is ≥ 75%.
Consider `Cc1ccc(C(C)C)c(N/C(=N/N=C/c2ccc(-n3cc(NC(=O)c4ccc(OC(F)(F)F)cc4)c(C)n3)cc2)SCOC(=O)N2CCOCC2)c1` [Compound C-10, [(Z)—N-(2-isopropyl-5-methyl-phenyl)-N′-[(E)-[4-[3-methyl-4-[[4-(trifluoromethoxy)benzoyl]amino]pyrazol-1-yl]phenyl]methyleneamino]carbamimidoyl]sulfanylmethyl morpholine-4-carboxylate], for which the mortality at 500 ppm in experiment [2] and in experiment [6] was ≥ 75% in each case. For the same molecule, the mortality at 800 ppm in experiment [3] and in experiment [5] was ≥ 75% throughout. For the same molecule, the mortality at 300 ppm in experiment [7] is ≥ 75%.
Regarding `COCCOCCOCCOCCOC(=O)OCS/C(=N\N=C\c1ccc(-n2cc(NC(=O)c3ccc(OC(F)(F)F)cc3)c(C)n2)cc1C)Nc1cc(C)ccc1C(C)C` [Compound C-15, [(Z)—N-(2-isopropyl-5-methyl-phenyl)-N′-[(E)-[2-methyl-4-[3-methyl-4-[[4-(trifluoromethoxy)benzoyl]amino]pyrazol-1-yl]phenyl]methyleneamino]carbamimidoyl]sulfanylmethyl 2-[2-[2-(2-methoxyethoxy)ethoxy]ethoxy]ethyl carbonate], the mortality at 800 ppm in experiment [1] was ≥ 50%; in experiment [3], ≥ 75%; in experiment [5], ≥ 75%. Also, the mortality at 500 ppm in experiment [2] and in experiment [6] was ≥ 75% throughout. Besides, the mortality at 300 ppm in experiment [4] and in experiment [7] was ≥ 75% in each case.
On to `Cc1ccc(C(C)C)c(N/C(=N/N=C/c2ccc(-n3cc(NC(=O)c4ccc(OC(F)(F)F)cc4)c(C)n3)cc2C)SCOC(=O)C2CCCCC2)c1` [Compound C-21, [(Z)—N-(2-isopropyl-5-methyl-phenyl)-N′-[(E)-[2-methyl-4-[3-methyl-4-[[4-(trifluoromethoxy)benzoyl]amino]pyrazol-1-yl]phenyl]methyleneamino]carbamimidoyl]sulfanylmethyl cyclohexanecarboxylate], for which the mortality at 500 ppm in experiment [2] and in experiment [6] was ≥ 75% throughout. Besides, the mortality at 800 ppm in experiment [3] and in experiment [5] was ≥ 75% throughout. Further, the mortality at 300 ppm in experiment [4] and in experiment [7] was ≥ 75% throughout.
With `Cc1ccc(C(C)C)c(N/C(=N/N=C/c2ccc(-n3cc(NC(=O)c4ccc(OC(F)(F)F)cc4)c(C)n3)cc2C)SCOC(=O)C2CC2)c1` [Compound C-22, [(Z)—N-(2-isopropyl-5-methyl-phenyl)-N′-[(E)-[2-methyl-4-[3-methyl-4-[[4-(trifluoromethoxy)benzoyl]amino]pyrazol-1-yl]phenyl]methyleneamino]carbamimidoyl]sulfanylmethyl cyclopropanecarboxylate], the mortality at 800 ppm in experiment [1] is ≥ 50%; in experiment [3], ≥ 75%; in experiment [5], ≥ 75%. In addition, the mortality at 500 ppm in experiment [2] and in experiment [6] was ≥ 75% each time. Besides, the mortality at 300 ppm in experiment [7] is ≥ 75%.
For the molecule `COc1ccc(/C=C/C(=O)OCS/C(=N\N=C\c2ccc(-n3cc(NC(=O)c4ccc(OC(F)(F)F)cc4)c(C)n3)cc2C)Nc2cc(C)ccc2C(C)C)cc1` [Compound C-23, [(Z)—N-(2-isopropyl-5-methyl-phenyl)-N′-[(E)-[2-methyl-4-[3-methyl-4-[[4-(trifluoromethoxy)benzoyl]amino]pyrazol-1-yl]phenyl]methyleneamino]carbamimidoyl]sulfanylmethyl (E)-3-(4-methoxyphenyl)prop-2-enoate], the mortality at 500 ppm in experiment [2] and in experiment [6] was ≥ 75% each time. For the same molecule, the mortality at 800 ppm in experiment [3] and in experiment [5] was ≥ 75% in each case. In addition, the mortality at 300 ppm in experiment [4] and in experiment [7] was ≥ 75% each time.

For orientation: mortality means the percentage killed.
